In general, melting point refers to the temperature of the solid-liquid transition. In the case of `CC1OC(=O)c2ncnc(NCCc3ccc(Oc4ccnc(C(F)(F)F)c4)cc3F)c21` (centres unmarked), the melting point amounted to 159 °C.

With `COc1cc(CCNc2ncnc3cnn(C)c23)ccc1Oc1ccnc(C(F)(F)F)c1` [I-10, N-[2-[3-methoxy-4-[[2-(trifluoromethyl)-4-pyridyl]oxy]phenyl]ethyl]-1-methyl-pyrazolo[4,3-d]pyrimidin-7-amine], the melting point is 178 °C.

These data come from patent publication US9072301B2 (priority 2012, dated 2015).
